Experiments:
[1] = test system: STZ-induced diabetic rats; assay: Oxidative stress markers (GSH, SOD, MDA) in liver and kidney of STZ-induced diabetic rats; assay type: in vivo, rat; settings: 4 weeks
Procedure: (§1) Diabetes was induced by a single intraperitoneal injection of streptozotocin (Sigma-Aldrich, St. Louis, MO, USA) at a dose of 65 mg/kg body weight. STZ was dissolved in 0.1 M cold citrate buffer, pH 4.5. Control group were injected with citrate buffer alone. After 7 days for the development of diabetes, plasma glucose levels were determined of each rat. Rats with fasting blood glucose (FBG) range of above 16.7 mmol/L were considered as DM rats and were used for further study.
(§2) According to the body weight and plasma glucose levels the rats were divided randomly into seven groups with six rats each and treated as follows: • Group I: Normal rats treated with 0.5% CMC-Na (2 mL/200 g body weight). • Group II: Diabetic rats treated with 0.5% CMC-Na. • Group III: Diabetic rats treated with 10 mg/kg of glibenclamide. • Group IV: Diabetic rats treated with 100 mg/kg of compound 1 (UA). • Group V: Diabetic rats treated with 100 mg/kg of compound 10. • Group VI: Diabetic rats treated with 100 mg/kg of compound 11. • Group VII: Diabetic rats treated with 100 mg/kg of compound 12.
(§3) The treatment was continued daily for 28 days. Blood glucose levels and body weight were measured every week to ascertain the status of diabetes. After 4 weeks of treatment, the animals were fasted for 12 h and sacrificed by cervical dislocation under mild anaesthetization, blood was collected into heparinized tubes and centrifuged at 2,000 rpm for 10 min. Livers and kidneys were removed, washed and homogenized in ice-cold normal saline. This homogenates were centrifuged at 3,000 rpm for 10 min at 4 °C, and the supernatants were collected for the estimate of antioxidant markers.
The tissue homogenates of liver and kidney were used for the estimate of antioxidant markers. Glutathione (GSH) level was measured with 5, 5'-dithiobis-(2-nitrobenzoic acid) (DTNB) as described by Sedlak and Lindsay. Superoxide dismutase (SOD) activity was assessed according to the method of Sinha. Malondialdehyde (MDA) activity was estimated with the thiobarbituric acid method.

[2] = test system: STZ-induced diabetic rats; assay: Serum biochemical parameters (insulin, total protein, albumin) in STZ-induced diabetic rats; assay type: in vivo, rat; settings: 4 weeks, compounds 100 mg/kg, glibenclamide 10 mg/kg
Procedure: as §1, §2, §3
(§4) Fasting blood glucose levels were estimated on days 0, 7, 14, 28 with the single touch glucometer (Life Scan, Johnson & Johnson Company, New Brunswick, NJ, USA). Serum insulin level was measured by use of a commercial immunoassay kit by enzyme linked immunosorbent assay (Uscn. Life Science Inc., Wuhan, China). Serum total protein, albumin, triglycerides (TG), total cholesterol (TC), high-density lipoprotein cholesterol (HDL-C), and low-density lipoprotein cholesterol (LDL-C) were measured with an automatic biochemical analyzer (Sinnowa D240, Nanjing, China).

Caco-2 cells = assay: MTT cytotoxicity assay on Caco-2 cells; assay type: cell-based, Human; settings: Homo sapiens, 24 h, mean ± SD, n = 4, read-out: Inhibition Rate %
Procedure: Human intestinal Caco-2 cells (ATCC, Rockville, MD, USA) were incubated at 37 °C in a humidified atmosphere of 5% CO2 in air. The cells were cultured in Dulbecco’s […] medium (DMEM) with 10% heat-inactivated fetal bovine serum, 1% non-essential amino acids, 1% L-glutamine, 1% penicillin/streptomycin (Gibco Life Technologies, Grand Island, NY, USA). The cells were sub-cultured at confluence by 0.05% trypsin-0.5 mM EDTA treatment before they were applied in the experiment.
A MTT test was conducted to determine the possible toxicity of UA and its derivatives to Caco-2 cells. Briefly, cells were seeded at a density of 1 × 10^4 cells/mL in a 96-well plate and incubated for 24 h. The next day, cells were incubated with vehicle (0.1% DMSO) and compounds at 100, 50, 25, 12.5 μmol/L for 24 h, and then 5 g/L MTT solution (20 μL) was added for 4 h. Absorbance at 570 nm was measured using a Multimodel Plate Reader (Infinite 200, Tecan, Mannedorf, Switzerland).

GLUT-2 = assay: Western blot of GLUT-2 protein expression in Caco-2 cells; assay type: cell-based, Human; settings: 100 μM, 6 h
Procedure: Caco-2 cells were cultured on 6-well plates at a density of 1 × 10^6 cells/well for 13 days. The cells were placed in serum-free medium for 24 h prior to the treatment. Then UA and its derivatives (100 μM) were added, after 6 h incubation, the cells were immediately washed three times with ice-cold PBS and lysed in 200 μL lysis buffer. Cells were allowed to lyse on ice, and then scraped, vortexed, sonicated and stored at −80 °C for further analysis. Protein concentrations were determined as described and cell lysate was subjected to western blot analysis. Briefly, proteins with same amount were denatured in sample buffer, separated on 8% SDS-PAGE gel, and transferred onto a polyvinylidene diflouride membrane. The membranes were blocked for 1 h at 37 °C with 10% defatted milk in Tris-buffered saline (10 mM Tris-HCl, pH 7.5 and 137 mM NaCl) containing 0.05% Tween 20 (TBST). Membranes were then incubated overnight at 4 °C in blocking buffer with antibodies for GLUT-2, SGLT-1 and β-actin (EMD, Millipore, Billerica, MA, USA). Membranes were washed with TBST and incubated 1 h with appropriate secondary antibodies. Revelation was performed by using the enhanced chemiluminescence reagent and blue-light sensitive film. Densitometric analysis of films was performed with a Hewlett-Packard scanner equipped with a transparent adaptor and UN-SCAN-IT software.

[3] = test system: STZ-induced diabetic rats; assay: Serum lipid profile (TG, TC, LDL-C, HDL-C) in STZ-induced diabetic rats; assay type: in vivo, rat; settings: 4 weeks, compounds 100 mg/kg, glibenclamide 10 mg/kg
Procedure: as §1, §2, §3, §4

SMILES: CCC(=O)O[C@H]1CC[C@@]2(C)C(CC[C@]3(C)C2CC=C2C4[C@@H](C)[C@H](C)CC[C@]4(C(=O)O)CC[C@]23C)C1(C)C (stereo partly shown) [Compound 10]
- SOD level in the liver and kidney ([1]; liver and kidney of STZ diabetic rats): great improvement
- GSH level in liver ([1]; liver of STZ diabetic rats): significant effects
- MDA level in the liver ([1]; liver of STZ diabetic rats, daily administration): obviously down-regulated
- serum albumin level vs diabetic control [2]: increased significantly
- serum insulin level vs diabetic control [2]: increased significantly
- serum total protein level vs diabetic control [2]: increased significantly
- inhibition at 100 µM (Caco-2 cells): 7.84 ± 4.15%
- effect on expression of protein GLUT-2 (GLUT-2): significant effects on reducing
- serum TC level vs diabetic control [3]: significantly decreased
- serum TG level vs diabetic control [3]: significantly decreased
